# Like-named read-outs stand apart in the source and are kept apart here.
# How the values were obtained:
# [1] = Antibiotic concentrations in porcine oral fluid after intramuscular application (UHPLC-MS/MS); assay type: in vivo; conditions: pigs, i.m.; for concentration in oral fluid at withdrawal period: at the end of the withdrawal period for tissues of each drug (Table 3); for time for which the analyte was present / quantified in oral fluid: sampling for 30 days
# Description: All animals were born in the sow farm (8000 DanBred sows) located in Northern Poland, after crossing ♀(♂Landrace × ♀Yorskshire) × ♂Duroc. Piglets were weaned after 4 weeks of lactation with an average weight of 6 kg and then moved to the weaner stable (23,000 weaners). After the next 7 weeks, animals were transported to the 9000-places fattening farm with an average body weight of 28 kg, where the trial was performed. All farms in the aforementioned three-phase model used weekly batches and an all-in all-out system. Specialist veterinary and production management care were provided in each location.
# For the purpose of the study, 240 immunologically castrated boars were divided into 8 groups, 30 animals in each pen. For the control group, 30 pigs were used in separate pens. Their initial body weight was between 40 and 60 kg. Pigs were housed at 20–25 °C. Fatteners were fed ad libitum with antimicrobial-free water and feed provided by feeders throughout the study. Before the experiment, water and feed were checked for antimicrobials, and no antimicrobial treatments were administered to these pigs before. All animals in one pen were treated due to the same health issue using disposable needles and the same drug and dosage. Pens were separated from each other with concrete walls. The drugs and dosage administered to each experimental group with an indication of withdrawal period for tissues are listed in Table 3. The oral fluid samples were collected using three cotton ropes (70 cm length with 1 cm diameter) in each pen suspended separately for 25 min on the front wall of the pen with bottoms at the pigs’ shoulder height, away from water and feed.
# The research material was one pooled sample of oral fluid from 10 pigs, in triplicate, per pen. Ropes were removed immediately after collection. The first oral fluid sample was collected 24 h after the first injection. The collection of each subsequent sample took place at the same time (11:30 A.M.) for 35 consecutive days. Additionally, oral fluid samples were collected from pigs not treated with any antibiotics. Oral fluid from each pen was pooled into one 50-mL Falcon plastic tube and centrifuged at 9447× rcf for 15 min. Centrifuged material was transferred to a 15 mL plastic tube and frozen at −20 °C until analysis.
# Before the analysis, the oral fluid samples were centrifuged at 9447× rcf. Next, an aliquot (1 mL) of oral fluid was placed into a 2 mL polypropylene centrifuge tube, and the 30 µL of the internal standard at the concentration of 2 µg/mL was added. For the extraction of analysed antibiotics, 600 µL of 0.5% formic acid was added, vortexed for 30 s and centrifuged for 10 min at 9447× rcf. Then, the supernatant was filtered through a […] PVDF filter into an amber glass vial before chromatographic analysis.
# The mass spectrometry detection was operated in the positive ESI mode with multiple reaction monitoring (MRM).
# [2] = parameters: method as in PMID 14651045, PMID 14651045; conditions: cited from earlier work
# [3] = organic acid; cited from earlier work
# [4] = parameters: method as in PMID 28042939; conditions: 21st day, i.m., cited from earlier work
# [5] = male, (Landrace × Yorkshire) × Duroc crossbred (DanBred sows), pig, intramuscular, oral fluid, time 1 d (24 h after first injection), treatment period, read-out: Avarage Concentrations in oral fluid
# [6] = male, (Landrace × Yorkshire) × Duroc crossbred (DanBred sows), pig, intramuscular, oral fluid, treatment period, read-out: Avarage Concentrations in oral fluid
# [7] = male, (Landrace × Yorkshire) × Duroc crossbred (DanBred sows), pig, intramuscular, oral fluid, posttreatment, read-out: Avarage Concentrations in oral fluid
# [8] = oral fluid, time 1 d (24 h after first injection), treatment period
# [9] = oral fluid, time 9 d, posttreatment
# [10] = oral fluid, time 10 d, posttreatment
# [11] = oral fluid, time 11 d, posttreatment
# [12] = oral fluid, time 12 d, posttreatment
# [13] = oral fluid, time 13 d, posttreatment
# [14] = oral fluid, time 14 d, posttreatment
# [15] = oral fluid, time 15 d, posttreatment
# [16] = oral fluid, time 16 d, posttreatment
# [17] = oral fluid, time 17 d, posttreatment
# [18] = oral fluid, time 18 d, posttreatment
# [19] = oral fluid, time 19 d, posttreatment
# [20] = oral fluid, time 20 d, posttreatment
# [21] = oral fluid, time 21 d, posttreatment
# [22] = oral fluid, time 22 d, posttreatment
# [23] = oral fluid, time 23 d, posttreatment
# [24] = oral fluid, time 24 d, posttreatment
# [25] = oral fluid, time 25 d, posttreatment
# [26] = oral fluid, time 26 d, posttreatment
# [27] = oral fluid, time 27 d, posttreatment
# [28] = oral fluid, time 28 d, posttreatment
# [29] = oral fluid, time 29 d, posttreatment
# [30] = oral fluid, time 30 d, posttreatment
"concentration at 1 d [1, 5] [ng/mL]","concentration at 2 d [1, 6] [ng/mL]","concentration at 3 d [1, 6] [ng/mL]","concentration at 4 d [1, 7] [ng/mL]","concentration at 5 d [1, 7] [ng/mL]",concentration in oral fluid at withdrawal period ([1]; oral fluid),time for which the analyte was present / quantified in oral fluid ([1]; oral fluid) [days],"Avarage Concentrations in oral fluid [1, 8] [µg/L]","Avarage Concentrations in oral fluid [1, 9]","Avarage Concentrations in oral fluid [1, 10]","Avarage Concentrations in oral fluid [1, 11]","Avarage Concentrations in oral fluid [1, 12]","Avarage Concentrations in oral fluid [1, 13]","Avarage Concentrations in oral fluid [1, 14]","Avarage Concentrations in oral fluid [1, 15]","Avarage Concentrations in oral fluid [1, 16]","Avarage Concentrations in oral fluid [1, 17]","Avarage Concentrations in oral fluid [1, 18]","Avarage Concentrations in oral fluid [1, 19]","Avarage Concentrations in oral fluid [1, 20]",SMILES,further results
11.3,15.2 ± 2.3,14.6 ± 1.8,11.4 ± 1.4,11.2 ± 1.6,below the limit of quantification,5,11.3 ± 1.6,<LOQ,<LOQ,<LOQ *,<LOQ,<LOQ,<LOQ,<LOQ,<LOQ,<LOQ,<LOQ,<LOQ,<LOQ,"CC1(C)S[C@@H]2[C@H](NC(=O)[C@H](N)c3ccc(O)cc3)C(=O)N2[C@H]1C(=O)O [AMX, amoxicillin]","Avarage Concentrations in oral fluid ([1]; oral fluid, time 6 d, posttreatment): <LOQ; Avarage Concentrations in oral fluid ([1]; oral fluid, time 7 d, posttreatment): <LOQ; Avarage Concentrations in oral fluid ([1]; oral fluid, time 8 d, posttreatment): <LOQ; Avarage Concentrations in oral fluid [1, 21]: <LOQ; Avarage Concentrations in oral fluid [1, 22]: <LOQ; Avarage Concentrations in oral fluid [1, 23]: <LOQ; Avarage Concentrations in oral fluid [1, 24]: <LOQ; Avarage Concentrations in oral fluid [1, 25]: <LOQ; Avarage Concentrations in oral fluid [1, 26]: <LOQ; Avarage Concentrations in oral fluid [1, 27]: <LOQ; Avarage Concentrations in oral fluid [1, 28]: <LOQ; Avarage Concentrations in oral fluid [1, 29]: <LOQ; Avarage Concentrations in oral fluid [1, 30]: <LOQ; distribution to oral fluid ([1]; conclusion in words): low penetration; binding degree to plasma proteins [2]: ≈ 25%"
93,50 ± 15,11 ± 4.6,16 ± 5.4,5.2 ± 1.1,below the limit of quantification,8,93 ± 21,<LOQ *,<LOQ,<LOQ,<LOQ,<LOQ,<LOQ,<LOQ,<LOQ,<LOQ,<LOQ,<LOQ,<LOQ,"CC1(C)S[C@@H]2[C@H](NC(=O)Cc3ccccc3)C(=O)N2[C@H]1C(=O)O [PEN G, penicillin G]","concentration at 6 d ([1]; male, (Landrace × Yorkshire) × Duroc crossbred (DanBred sows), pig, intramuscular, oral fluid, time 6 d, posttreatment, read-out: Avarage Concentrations in oral fluid): 52 ± 13 ng/mL; concentration at 7 d ([1]; male, (Landrace × Yorkshire) × Duroc crossbred (DanBred sows), pig, intramuscular, oral fluid, time 7 d, posttreatment, read-out: Avarage Concentrations in oral fluid): 32 ± 7.2 ng/mL; concentration at 8 d ([1]; male, (Landrace × Yorkshire) × Duroc crossbred (DanBred sows), pig, intramuscular, oral fluid, time 8 d, posttreatment, read-out: Avarage Concentrations in oral fluid): 6 ± 1.2 ng/mL; Avarage Concentrations in oral fluid [1, 21]: <LOQ; Avarage Concentrations in oral fluid [1, 22]: <LOQ; Avarage Concentrations in oral fluid [1, 23]: <LOQ; Avarage Concentrations in oral fluid [1, 24]: <LOQ; Avarage Concentrations in oral fluid [1, 25]: <LOQ; Avarage Concentrations in oral fluid [1, 26]: <LOQ; Avarage Concentrations in oral fluid [1, 27]: <LOQ; Avarage Concentrations in oral fluid [1, 28]: <LOQ; Avarage Concentrations in oral fluid [1, 29]: <LOQ; Avarage Concentrations in oral fluid [1, 30]: <LOQ; pKa [3]: 2.7"
,,,,,,,,,,,,,,,,,,,,CN(C)[C@@H]1C(O)=C(C(N)=O)C(=O)[C@@]2(O)C(O)=C3C(=O)c4c(O)cccc4[C@@](C)(O)[C@H]3[C@H](O)[C@@H]12 [oxytetracycline],concentration in oral fluid at the withdrawal period ([4]; group where all pigs were treated): 30.8 µg/kg; concentration in oral fluid at the withdrawal period ([4]; group where the antibiotic was administered to half of the animals in one pen): 11.6 µg/kg

# Source: paper PMC8879095, “UHPLC-MS/MS Analysis of Antibiotics Transfer and Concentrations in Porcine Oral Fluid after Intramuscular Application” (Pharmaceuticals, 2022)
